From patent publication US8609836B2, “4-aryl-2-anilino-pyrimidines” (Janssen Pharmaceutica NV, priority 2008, dated 2013)

Tests used:
PLK4 (h) = PLK4 (h) (Homo sapiens, UniProt O00444); assay: PLK-4 human kinase inhibition, scintillation proximity assay (SPA); format: biochemical; conditions: read-out: PLK4 pIC50 (converted)
Experimental: (§1) In the SPA technology the activity of the kinase of interest is measured using an appropriate biotinylated substrate that is incubated with the aforementioned kinase protein in the presence of (^33P) radiolabeled ATP. (^33P) Phosphorylation of the substrate is subsequently measured through binding of the phosphorylated substrate to streptavidine coated beads that are based on the scintillant poly(vinyl toluene) (PVT-Beads). The scintillation intensity is detected by imaging on Leadseeker.
(§2) All kinases are pre-diluted to a 10× working concentration prior to addition into the assay. The composition of the dilution buffer for each kinase is detailed below.
(6.0 μCi/ml). After incubation of 60 minutes at room temperature, the reaction is stopped by addition of 40 μL of stop solution containing 8.7 mM EDTA, BSA 0.17%, 0.17% Triton X-100, 1.7 mg/ml SPA beads (GE-healthcare). The plate is centrifuged and read for Scintillation imaging on Leadseeker.

AuroraB (h) = AuroraB (h) (Homo sapiens, UniProt Q96GD4); assay: Aurora-B human kinase inhibition, SPA; format: biochemical; conditions: read-out: AuroraB pIC50 (converted)
Chain of AuroraB (h) (Q96GD4 whole entry): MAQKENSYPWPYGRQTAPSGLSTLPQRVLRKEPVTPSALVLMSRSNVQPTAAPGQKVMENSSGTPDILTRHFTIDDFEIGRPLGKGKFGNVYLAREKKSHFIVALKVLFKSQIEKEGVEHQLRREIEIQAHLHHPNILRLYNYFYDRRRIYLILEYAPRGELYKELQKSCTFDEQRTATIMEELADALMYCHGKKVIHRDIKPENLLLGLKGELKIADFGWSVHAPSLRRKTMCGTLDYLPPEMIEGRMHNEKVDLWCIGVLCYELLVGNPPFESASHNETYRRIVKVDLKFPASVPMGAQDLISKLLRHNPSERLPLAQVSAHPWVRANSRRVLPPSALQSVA
Experimental: (§3) The in vitro inhibition of a panel of kinases was assessed using either the scintillation proximity assay (SPA) as described by Cook, N. D. et al., Advances in Experimental Medicine and Biology (1991), 36; p. 525-528.
as §1, §2
In a final reaction volume of 30 μl, AuroraB (h) (0.5 μg/ml) is incubated with 60 mM Hepes pH 7.5, 3 mM MgCl2, 3 mM MnCl2, 3 μM Na3VO4, 0.05 mg/ml PEG, 2 mM DTT, 3 μM Biotin-[…]-OH, 0.5 μM ATP and 2.2 nM [γ-^33P-ATP] (6.8 μCi/ml). After incubation of 60 minutes at room temperature, the reaction is stopped by addition of 40 μL of stop solution containing 8.7 mM EDTA, BSA 0.17%, 0.17% Triton X-100, 5 mg/ml SPA beads (GE-healthcare). The plate is centrifuged and read for Scintillation imaging on Leadseeker.

GSK3β (h) = GSK3β (h) (Homo sapiens, UniProt P49841); assay: GSK-3β human kinase inhibition, SPA; format: biochemical; conditions: read-out: GSK3b pIC50 (converted)
Chain of GSK3β (h) (P49841 whole entry): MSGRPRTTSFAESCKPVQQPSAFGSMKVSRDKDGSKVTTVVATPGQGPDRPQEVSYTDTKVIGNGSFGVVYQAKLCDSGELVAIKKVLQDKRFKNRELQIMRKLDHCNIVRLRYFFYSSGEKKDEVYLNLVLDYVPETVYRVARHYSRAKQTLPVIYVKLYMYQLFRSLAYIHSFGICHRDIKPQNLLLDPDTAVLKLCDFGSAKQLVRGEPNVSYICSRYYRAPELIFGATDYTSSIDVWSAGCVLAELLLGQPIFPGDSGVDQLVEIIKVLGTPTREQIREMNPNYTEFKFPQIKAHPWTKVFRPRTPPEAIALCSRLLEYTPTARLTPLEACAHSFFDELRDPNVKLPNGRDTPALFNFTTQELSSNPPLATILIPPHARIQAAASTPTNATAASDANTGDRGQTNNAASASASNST
Experimental: as §3, §1, §2
In a final reaction volume of 30 μl, GSK3β (h) (1 μg/ml) is incubated with 25 mM Tris pH 7.4, 10 mM MgCl2, 1 mM DTT, 1 μM peptide Biotin-[…]-OH, 1 μM ATP and 2 nM [γ-^33P-ATP] (6.0 μCi/ml). After incubation of 60 minutes at room temperature, the reaction is stopped by addition of 40 μL of stop solution containing 8.7 mM EDTA, BSA 0.17%, 0.17% Triton X-100, 6.25 mg/ml SPA beads (GE-healthcare). The plate is centrifuged and read for Scintillation imaging on Leadseeker.

CDK1/CyclinB (h) = CDK1/CyclinB (h) (Homo sapiens, UniProt P06493); assay: CDK1/CyclinB human kinase inhibition, Invitrogen's FRET assay (Z'lyte); format: biochemical; conditions: read-out: CDK1 pIC50 (converted)
Chain of CDK1/CyclinB (h) (P06493 whole entry): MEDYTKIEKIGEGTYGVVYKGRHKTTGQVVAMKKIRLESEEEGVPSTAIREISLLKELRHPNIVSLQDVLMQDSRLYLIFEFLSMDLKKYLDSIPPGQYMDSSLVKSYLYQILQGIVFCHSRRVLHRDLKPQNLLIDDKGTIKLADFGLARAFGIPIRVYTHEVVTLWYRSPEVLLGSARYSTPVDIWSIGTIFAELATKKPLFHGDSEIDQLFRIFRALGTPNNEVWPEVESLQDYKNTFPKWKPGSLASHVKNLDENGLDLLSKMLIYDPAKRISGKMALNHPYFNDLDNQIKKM
Chain of CDK1/CyclinB (h) (P14635 whole entry partner): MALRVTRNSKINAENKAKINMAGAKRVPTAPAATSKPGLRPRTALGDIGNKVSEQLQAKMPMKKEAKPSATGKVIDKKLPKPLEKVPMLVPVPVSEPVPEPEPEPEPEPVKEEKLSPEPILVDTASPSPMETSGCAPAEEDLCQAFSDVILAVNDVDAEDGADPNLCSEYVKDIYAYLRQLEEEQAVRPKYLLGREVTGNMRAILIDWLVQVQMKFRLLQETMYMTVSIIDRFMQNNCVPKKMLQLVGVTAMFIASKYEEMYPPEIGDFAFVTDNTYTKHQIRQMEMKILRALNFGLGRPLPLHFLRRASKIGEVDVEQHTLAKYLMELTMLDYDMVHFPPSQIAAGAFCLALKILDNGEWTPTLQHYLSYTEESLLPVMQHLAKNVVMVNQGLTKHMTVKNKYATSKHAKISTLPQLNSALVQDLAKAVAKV
Experimental: as §3, §2
In a final reaction volume of 10 μl, CDK1/CyclinB (h) (0.2 μg/ml) is incubated with 50 mM Hepes pH 7.5, 10 mM MgCl2, 1 mM EGTA, 0.01% Brij-35, 2 μM Z'lyte Ser/Thr peptide 12 and 10 μM ATP (Invitrogen's FRET assay). After incubation of 60 minutes at room temperature, the reaction is stopped by addition of 5 μL development reagent containing protease mix. After 60 minutes room temperature the development reaction is stopped by adding 5 μl stop solution. The plate is then read in fluorescence plate reader with excitation: 390 nm and dual emission: 460 and 538 nm. Emission ratio is determined to the formula=Emission signal intensity at 460 nm/Emission signal intensity at 538 nm.

CDK4/CyclinD1 (h) = CDK4/CyclinD1 (h) (Homo sapiens, UniProt P11802); assay: CDK4/CyclinD1 human kinase inhibition, SPA with GST-pRb substrate; format: biochemical; conditions: read-out: CDK4 pIC50 (converted)
Chain of CDK4/CyclinD1 (h) (P11802 whole entry): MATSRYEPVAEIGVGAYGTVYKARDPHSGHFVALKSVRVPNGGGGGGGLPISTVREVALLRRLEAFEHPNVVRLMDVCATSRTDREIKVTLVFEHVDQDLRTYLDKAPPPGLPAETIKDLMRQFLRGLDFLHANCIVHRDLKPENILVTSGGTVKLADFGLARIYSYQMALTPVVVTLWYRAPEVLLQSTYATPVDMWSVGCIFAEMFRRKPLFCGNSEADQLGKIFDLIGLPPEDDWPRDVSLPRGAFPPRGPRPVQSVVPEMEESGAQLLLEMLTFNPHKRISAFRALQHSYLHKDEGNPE
Chain of CDK4/CyclinD1 (h) (P24385 whole entry partner): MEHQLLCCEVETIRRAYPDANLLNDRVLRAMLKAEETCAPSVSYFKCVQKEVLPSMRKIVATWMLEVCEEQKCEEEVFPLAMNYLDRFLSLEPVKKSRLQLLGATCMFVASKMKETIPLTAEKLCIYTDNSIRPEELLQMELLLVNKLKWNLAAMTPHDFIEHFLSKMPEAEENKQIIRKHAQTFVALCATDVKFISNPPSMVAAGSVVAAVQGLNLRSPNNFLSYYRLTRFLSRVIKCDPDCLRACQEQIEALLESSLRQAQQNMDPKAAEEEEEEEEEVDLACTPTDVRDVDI
Experimental: as §3, §1, §2
In a final reaction volume of 30 μl, CDK4/CyclinD1 (h) (2.5 μg/ml) is incubated with 50 mM Hepes pH 7.5, 8 mM NaF, 20 mM MgCl2, 1 mM DTT, 40 μg/ml of substrate GST-pRb, 2 nM [γ-^33P-ATP] (6.0 μCi/ml). After incubation of 60 minutes at room temperature, the reaction is stopped by addition of 40 μL of stop solution containing 8.7 mM EDTA, 0.17% Triton X-100, 25 mg/ml Glutathion SPA Beads (GE-healthcare). The plate is centrifuged and read for Scintillation topcount analyzer.

PLK1 T210D (h) = PLK1 T210D (h) (Homo sapiens, UniProt P53350, T210D); assay: PLK1 human kinase inhibition, SPA; format: biochemical; conditions: read-out: PLK1 pIC50 (converted)
Chain of PLK1 T210D (h) (P53350 whole entry T210D): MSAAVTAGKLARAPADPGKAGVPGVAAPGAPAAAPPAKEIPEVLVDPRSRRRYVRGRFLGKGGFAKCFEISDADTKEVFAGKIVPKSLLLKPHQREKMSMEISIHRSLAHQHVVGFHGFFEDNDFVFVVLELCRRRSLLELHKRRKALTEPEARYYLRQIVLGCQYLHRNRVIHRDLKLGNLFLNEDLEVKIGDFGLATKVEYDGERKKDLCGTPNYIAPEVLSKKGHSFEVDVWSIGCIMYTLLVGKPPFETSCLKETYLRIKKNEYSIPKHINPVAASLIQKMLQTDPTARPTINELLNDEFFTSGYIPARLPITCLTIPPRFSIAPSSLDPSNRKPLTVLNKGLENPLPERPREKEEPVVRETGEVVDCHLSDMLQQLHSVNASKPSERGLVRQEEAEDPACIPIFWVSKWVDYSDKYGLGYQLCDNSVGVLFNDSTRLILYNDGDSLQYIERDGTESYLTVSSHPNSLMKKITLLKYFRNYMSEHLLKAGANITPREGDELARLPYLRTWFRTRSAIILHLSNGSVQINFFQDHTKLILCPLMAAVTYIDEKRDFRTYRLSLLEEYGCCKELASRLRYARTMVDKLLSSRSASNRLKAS
Experimental: as §3, §1, §2
In a final reaction volume of 30 μl, PLK1 T210D (h) (0.125 ng/ml) is incubated with 50 mM Hepes pH 8.0, 2 mM MnCl2, 1 mM DTT, 2 μM of peptide Biotin-Tds linker-[…], 0.1 μM ATP and 2 nM [γ-^33P-ATP] (6.0 μCi/ml). After incubation of 40 minutes at room temperature, the reaction is stopped by addition of 40 μL of stop solution containing 8.7 mM EDTA, BSA 0.17%, 0.17% Triton X-100, 25 mg/ml SPA beads (GE-healthcare). The plate is centrifuged and read for Scintillation imaging on Leadseeker.

PLK2 (h) = PLK2 (h) (Homo sapiens, UniProt Q9NYY3); assay: PLK2 human kinase inhibition, SPA; format: biochemical; conditions: read-out: PLK2 pIC50 (converted)
Chain of PLK2 (h) (Q9NYY3 whole entry): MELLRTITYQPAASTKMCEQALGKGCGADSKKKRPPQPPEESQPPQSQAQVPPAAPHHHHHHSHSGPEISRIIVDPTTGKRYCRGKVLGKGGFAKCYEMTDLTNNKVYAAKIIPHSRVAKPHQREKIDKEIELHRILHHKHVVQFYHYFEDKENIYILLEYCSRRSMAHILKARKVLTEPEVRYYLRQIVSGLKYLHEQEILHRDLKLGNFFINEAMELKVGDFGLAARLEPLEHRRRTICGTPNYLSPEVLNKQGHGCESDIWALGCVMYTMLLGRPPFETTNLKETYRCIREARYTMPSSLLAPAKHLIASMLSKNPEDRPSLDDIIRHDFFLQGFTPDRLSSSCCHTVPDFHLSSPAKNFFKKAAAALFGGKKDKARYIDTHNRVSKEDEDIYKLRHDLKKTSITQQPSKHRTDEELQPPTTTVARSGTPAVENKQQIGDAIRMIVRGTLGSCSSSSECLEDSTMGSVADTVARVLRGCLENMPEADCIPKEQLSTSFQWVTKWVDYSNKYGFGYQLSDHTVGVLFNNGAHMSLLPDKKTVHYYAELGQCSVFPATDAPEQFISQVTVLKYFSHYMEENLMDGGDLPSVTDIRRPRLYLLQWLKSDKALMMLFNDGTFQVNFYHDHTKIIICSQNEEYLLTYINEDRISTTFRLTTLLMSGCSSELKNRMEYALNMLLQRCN
Experimental: as §3, §1, §2
(§4) In a final reaction volume of 30 μl, PLK2 (h) (30 μg/ml) is incubated with 50 mM Hepes pH 8.0, 2 mM MnCl2, 1 mM DTT, 2 μM of peptide Biotin-Tds linker-[…], 0.1 μM ATP and 2 nM [γ-^33P-ATP] (6.0 μCi/ml). After incubation of 20 minutes at room temperature, the reaction is stopped by addition of 40 μL of stop solution containing 8.7 mM EDTA, BSA 0.17%, 0.17% Triton X-100, 25 mg/ml SPA beads (GE-healthcare). The plate is centrifuged and read for Scintillation imaging on Leadseeker.

PLK3 (h) = PLK3 (h) (Homo sapiens, UniProt Q9H4B4); assay: PLK3 human kinase inhibition, SPA; format: biochemical; conditions: read-out: PLK3 pIC50 (converted)
Chain of PLK3 (h) (Q9H4B4 whole entry): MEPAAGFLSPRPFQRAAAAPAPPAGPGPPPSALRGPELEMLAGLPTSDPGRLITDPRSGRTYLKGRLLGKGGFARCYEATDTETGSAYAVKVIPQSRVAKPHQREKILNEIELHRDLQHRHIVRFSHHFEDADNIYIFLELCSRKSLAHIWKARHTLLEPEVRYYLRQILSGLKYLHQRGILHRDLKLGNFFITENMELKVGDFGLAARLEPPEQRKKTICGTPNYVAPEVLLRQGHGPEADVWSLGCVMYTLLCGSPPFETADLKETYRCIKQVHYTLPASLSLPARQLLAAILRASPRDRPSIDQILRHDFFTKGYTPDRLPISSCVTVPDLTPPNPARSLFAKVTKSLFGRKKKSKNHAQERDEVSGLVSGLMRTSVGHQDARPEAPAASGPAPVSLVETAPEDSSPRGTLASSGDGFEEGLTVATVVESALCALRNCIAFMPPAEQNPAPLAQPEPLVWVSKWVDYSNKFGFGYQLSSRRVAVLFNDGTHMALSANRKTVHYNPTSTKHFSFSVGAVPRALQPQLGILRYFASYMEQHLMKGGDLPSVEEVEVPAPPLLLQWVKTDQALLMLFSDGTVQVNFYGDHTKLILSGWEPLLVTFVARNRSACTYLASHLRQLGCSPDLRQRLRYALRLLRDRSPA
Experimental: as §3, §1, §2
as §4, with “PLK3” for “PLK2”

HCT-116 = assay: Cellular proliferation assay (Alamar blue), HCT-116; format: cell-based; conditions: Homo sapiens, 10% FCS, 72 hours with compound, Alamar blue 4 h
Experimental: (§5) […] functional properties of these compounds were tested in cellular proliferation assays on a panel of different cell lines in the presence of 10% FCS serum (37° C. and 5% (v/v) CO2). In a first step these cells were seeded and incubated for 24 hours in the absence of compound. In the second step the cells were incubated for 72 hours with the compounds to be tested for 72 hours. The viable cell number was finally assessed in a standard Alamar blue cell viability assay.
(§6) The viable cell number was assessed by incubation for either 4 h (HCT-116, H1299) 6 h (U87-MG) or 24 h (A2780, MDA-MB-231) with Alamar blue (Resazurin 9 μg/ml, K-Ferrocyanide 90 μM, K-Ferricyanide 90 μM) and the converted fluorescent product was quantified on a fluorescent plate reader (544 nm/590 nm). Effect of the compounds is calculated as of on control cells.

U87-MG = assay: Cellular proliferation assay (Alamar blue), U87-MG; format: cell-based; conditions: Homo sapiens, U-87 MG; 10% FCS; 72 hours with compound; Alamar blue 6 h; read-out: U87-MG (cellular proliferation assay, Table 4) (converted)
Experimental: as §5, §6

A2780 = assay: Cellular proliferation assay (Alamar blue), A2780; format: cell-based; conditions: Homo sapiens, 10% FCS, 72 hours with compound, Alamar blue 24 h, read-out: A2780 (cellular proliferation assay, Table 4) (converted)
Experimental: as §5, §6

Chain of PLK4 (h) (O00444 whole entry): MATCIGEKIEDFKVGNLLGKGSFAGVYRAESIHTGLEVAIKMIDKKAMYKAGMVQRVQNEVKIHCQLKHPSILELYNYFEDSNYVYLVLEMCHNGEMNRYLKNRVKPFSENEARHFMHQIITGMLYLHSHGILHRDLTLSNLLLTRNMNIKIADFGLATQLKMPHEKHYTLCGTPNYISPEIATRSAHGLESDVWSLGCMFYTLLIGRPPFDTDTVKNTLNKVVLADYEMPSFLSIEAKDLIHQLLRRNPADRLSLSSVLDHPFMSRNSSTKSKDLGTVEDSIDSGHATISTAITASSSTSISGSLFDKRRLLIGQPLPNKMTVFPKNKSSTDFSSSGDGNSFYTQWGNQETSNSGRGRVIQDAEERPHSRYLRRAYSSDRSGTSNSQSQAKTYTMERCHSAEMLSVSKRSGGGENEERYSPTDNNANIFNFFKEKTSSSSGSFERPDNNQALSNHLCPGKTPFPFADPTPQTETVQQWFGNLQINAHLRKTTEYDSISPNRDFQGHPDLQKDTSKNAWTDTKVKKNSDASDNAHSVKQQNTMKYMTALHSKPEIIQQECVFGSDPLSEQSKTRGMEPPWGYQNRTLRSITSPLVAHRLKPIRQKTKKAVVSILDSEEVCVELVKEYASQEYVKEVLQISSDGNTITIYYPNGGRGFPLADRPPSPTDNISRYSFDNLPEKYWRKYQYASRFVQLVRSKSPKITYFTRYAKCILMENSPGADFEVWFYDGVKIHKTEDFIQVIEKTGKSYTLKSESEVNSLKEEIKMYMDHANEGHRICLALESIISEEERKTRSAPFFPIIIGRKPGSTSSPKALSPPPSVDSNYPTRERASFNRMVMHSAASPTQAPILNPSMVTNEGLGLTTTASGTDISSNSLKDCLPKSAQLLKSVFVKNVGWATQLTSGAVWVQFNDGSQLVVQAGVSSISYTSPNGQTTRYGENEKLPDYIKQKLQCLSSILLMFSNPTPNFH

## CN1CCCNC(=O)CN2CCN(CC2)Cc2cc(Br)cc(c2)Nc2nccc(n2)-c2ccc(cc2)C1 [Compound 137]
PLK4 (h)
  IC50: 2.09 µM
AuroraB (h)
  IC50: > 10 µM
GSK3β (h)
  IC50: 2.95 µM
CDK1/CyclinB (h)
  IC50: > 10 µM
CDK4/CyclinD1 (h)
  IC50: > 10 µM
PLK1 T210D (h)
  IC50: > 10 µM
PLK2 (h)
  IC50: > 10 µM
PLK3 (h)
  IC50: > 10 µM
HCT-116
  IC50: > 10 µM
U87-MG
  IC50: 7.94 µM
A2780
  IC50: 3.89 µM

## CN1CCCNC(=O)CN2CCN(CC2)Cc2cccc(c2)Nc2nccc(n2)-c2ccc(cc2)C1 [Compound 143]
PLK4 (h)
  IC50: 3.55 µM
AuroraB (h)
  IC50: > 10 µM
GSK3β (h)
  IC50: > 3.02 µM
CDK1/CyclinB (h)
  IC50: > 10 µM
CDK4/CyclinD1 (h)
  IC50: > 10 µM
PLK1 T210D (h)
  IC50: > 10 µM
PLK2 (h)
  IC50: > 10 µM
PLK3 (h)
  IC50: > 10 µM
HCT-116
  IC50: > 10 µM
U87-MG
  IC50: > 10 µM
A2780
  IC50: > 10 µM

## CN1CCCNC(=O)[C@@H]2CCCN2Cc2cc(Br)cc(c2)Nc2nccc(n2)-c2ccc(cc2)C1 [Compound 159]
PLK4 (h)
  IC50: 1.48 µM
AuroraB (h)
  IC50: 5.75 µM
GSK3β (h)
  IC50: 6.31 µM
CDK1/CyclinB (h)
  IC50: > 10 µM
CDK4/CyclinD1 (h)
  IC50: > 10 µM
PLK1 T210D (h)
  IC50: > 10 µM
PLK2 (h)
  IC50: > 10 µM
PLK3 (h)
  IC50: > 10 µM
HCT-116
  IC50: > 10 µM
U87-MG
  IC50: 6.92 µM
A2780
  IC50: 2.69 µM

## COc1ccc2cc1CN(C)CCCNC(=O)[C@@H]1CCCN1Cc1cc(Br)cc(c1)Nc1nccc-2n1 [Compound 170]
PLK4 (h)
  IC50: 3.89 µM
AuroraB (h)
  IC50: 5.25 µM
GSK3β (h)
  IC50: > 10 µM
CDK1/CyclinB (h)
  IC50: > 10 µM
CDK4/CyclinD1 (h)
  IC50: > 10 µM
PLK1 T210D (h)
  IC50: > 10 µM
PLK2 (h)
  IC50: > 10 µM
PLK3 (h)
  IC50: > 10 µM
HCT-116
  IC50: > 10 µM
U87-MG
  IC50: 5.25 µM
A2780
  IC50: 4.17 µM

## COc1ccc2cc1CN(C)CCNC(=O)[C@@H]1CCCN1Cc1cc(Br)cc(c1)Nc1nccc-2n1 [Compound 174]
PLK4 (h)
  IC50: ~6.92 µM
AuroraB (h)
  IC50: 8.71 µM
GSK3β (h)
  IC50: 4.79 µM
CDK1/CyclinB (h)
  IC50: > 10 µM
CDK4/CyclinD1 (h)
  IC50: > 10 µM
PLK1 T210D (h)
  IC50: > 10 µM
PLK2 (h)
  IC50: > 10 µM
PLK3 (h)
  IC50: > 10 µM
HCT-116
  IC50: > 10 µM
U87-MG
  IC50: > 10 µM
A2780
  IC50: 1.66 µM

## O=C1NCc2cccc(c2)-c2ccnc(n2)Nc2ccc(cc2)CN[C@H]1CO [Compound 191]
PLK4 (h)
  IC50: > 10 µM
AuroraB (h)
  IC50: > 10 µM
GSK3β (h)
  IC50: 7.94 µM
CDK1/CyclinB (h)
  IC50: > 10 µM
CDK4/CyclinD1 (h)
  IC50: 7.41 µM
PLK1 T210D (h)
  IC50: > 10 µM
PLK2 (h)
  IC50: > 10 µM
PLK3 (h)
  IC50: > 10 µM
